The text below walks through data of patent US8466193B2, “Selective inhibitors of histone deacetylase” (Pharmacyclics, Inc., priority 2008, dated 2013).

For assay [1], the target named is T1, HDAC6 (Homo sapiens, UniProt Q9UBN7).
T1 sequence (Q9UBN7 1-1215): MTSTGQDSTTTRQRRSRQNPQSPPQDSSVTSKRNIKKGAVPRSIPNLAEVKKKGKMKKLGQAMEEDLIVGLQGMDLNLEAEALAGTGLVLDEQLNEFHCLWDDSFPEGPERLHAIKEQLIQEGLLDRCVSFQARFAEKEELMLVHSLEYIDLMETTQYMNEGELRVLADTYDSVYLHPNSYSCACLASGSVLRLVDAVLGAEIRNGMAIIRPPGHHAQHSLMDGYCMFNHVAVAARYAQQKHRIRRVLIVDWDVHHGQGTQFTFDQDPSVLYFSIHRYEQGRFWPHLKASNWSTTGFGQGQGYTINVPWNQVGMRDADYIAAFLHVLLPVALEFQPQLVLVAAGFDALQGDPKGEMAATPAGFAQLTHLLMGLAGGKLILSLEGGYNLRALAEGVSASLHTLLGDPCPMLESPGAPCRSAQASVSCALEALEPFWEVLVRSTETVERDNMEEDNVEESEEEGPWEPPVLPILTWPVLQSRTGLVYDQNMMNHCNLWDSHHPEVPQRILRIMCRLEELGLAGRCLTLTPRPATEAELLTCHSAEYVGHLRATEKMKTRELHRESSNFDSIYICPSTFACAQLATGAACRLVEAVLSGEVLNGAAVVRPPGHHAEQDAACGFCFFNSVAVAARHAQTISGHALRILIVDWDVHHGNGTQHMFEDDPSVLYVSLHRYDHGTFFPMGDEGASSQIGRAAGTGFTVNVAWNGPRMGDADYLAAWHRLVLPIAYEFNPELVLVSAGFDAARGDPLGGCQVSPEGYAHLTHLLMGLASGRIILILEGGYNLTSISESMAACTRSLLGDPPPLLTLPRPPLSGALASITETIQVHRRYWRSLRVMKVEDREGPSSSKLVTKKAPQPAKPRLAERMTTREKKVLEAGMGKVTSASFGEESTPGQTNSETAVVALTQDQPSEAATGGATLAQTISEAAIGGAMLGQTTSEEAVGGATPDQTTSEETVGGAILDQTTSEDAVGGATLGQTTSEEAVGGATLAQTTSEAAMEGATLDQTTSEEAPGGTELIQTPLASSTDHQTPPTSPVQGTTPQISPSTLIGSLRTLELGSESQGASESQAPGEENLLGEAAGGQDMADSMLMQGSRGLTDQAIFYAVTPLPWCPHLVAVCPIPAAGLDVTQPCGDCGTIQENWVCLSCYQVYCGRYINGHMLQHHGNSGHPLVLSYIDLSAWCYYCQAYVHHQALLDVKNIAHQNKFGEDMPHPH
The experiment in a line: Histone deacetylase activity, continuous trypsin-coupled assay. To be noted: 15 minutes preincubation; substrate acetyl-Gly-Ala-(N-acetyl-Lys)-AMC. In kind it is biochemical.

The test system of assay [2] is Jurkat cells. As to the kind of experiment: Cell proliferation assay, growth inhibition by Alamar Blue. In kind it is cell-based. To be noted: Homo sapiens, 72 h, Jurkat cells treated with compound for 3 days. As for the experimental part: Cell lines were obtained from DSMZ (Braunschweig, Germany) or ATCC (Manassas, Va.). Cells were grown in RPMI 1640 with 10% fetal bovine serum in a 5% CO2/air incubator at 37° C. Thapsigargin and BAPTA-AM were from Calbiochem (San Diego, Calif.). 3-((dimethylamino)methyl)-N-(2-(4-(hydroxycarbamoyl)phenoxy)ethyl)benzofuran-2-carboxamide is a broad-spectrum HDAC inhibitor which was synthesized as previously described. Other analogs with varying degrees of specificity towards the HDAC isoforms were synthesized as described herein.
Tumor cell lines and human umbilical vein endothelial cells (HUVEC) were cultured for at least two doubling times, and growth was monitored at the end of compound exposure using an Alamar Blue™ (Biosource, Camarillo, Calif.) fluorometric cell proliferation assay as recommended by the manufacturer. Compounds were assayed in triplicate wells in 96-well plates. The concentration required to inhibit cell growth by 50% (GI50) and 95% confidence intervals were estimated from nonlinear regression using a 4-parameter logistic equation. The effect of HDAC8 selective inhibitor compounds on cell proliferation in Jurkat cells was measured. Apoptosis was measured by Annexin-V flow cytommetry. Growth inhibition was measured by Alamar Blue assay. Cells were treated with compound for 3 days.
(In general: Resazurin is reduced to fluorescent resorufin, in cell work by metabolically active cells.)

The molecule `O=C(NO)c1ccc2ccn(CCOc3ccccc3)c2c1` [Compound 316, N-hydroxy-1-(2-phenoxyethyl)-1H-indole-6-carboxamide] had an IC50 in assay [1] above 10000 nM. The GI50 in assay [2] amounted to 2800 nM.

Broadly, the IC50 is the concentration that gives 50% inhibition. The low end stands for higher potency, the high end for lower potency. One may read the GI50 as the concentration that inhibits growth by half.
